Measured values published in paper PMC6410416 (Marine Drugs, 2019).

Molecular target: T1, Ps-Mn-SOD (Paelopatides sp. YL-2018, UniProt A0A411L1L4)
T1 construct: ORF 255 residues, signal peptide deleted; 6xHis tag (pCold II), E. coli pG-KJE8/BL21, Ni-NTA; about 30 kDa subunit, dimer about 60 kDa; C-terminal peptide (from primer) PSKHEEL
T1 sequence (A0A411L1L4 22-255): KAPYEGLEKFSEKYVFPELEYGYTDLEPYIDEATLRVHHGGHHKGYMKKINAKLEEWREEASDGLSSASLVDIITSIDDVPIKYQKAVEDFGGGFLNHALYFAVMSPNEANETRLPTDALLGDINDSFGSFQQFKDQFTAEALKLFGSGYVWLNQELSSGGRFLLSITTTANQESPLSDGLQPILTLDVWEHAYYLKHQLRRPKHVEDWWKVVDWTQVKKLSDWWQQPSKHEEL
Experiment: SOD assay kit, inhibition of chromogen production at […] nm
Format: biochemical
Conditions: superoxide generated in situ; turnover only

[O]O [superoxide]
SOD assay kit, inhibition of chromogen production at 550 nm: SOD activity was determined via spectrophotometric method using the SOD assay kit
